# According to patent publication US11135263B2 (priority 2014, dated 2021):
# Entries after “also recorded” stand apart in the source; their conditions may differ. Like-named read-outs stand apart in the source and are kept apart here.
# Experiments:
# S. aureus 6850 [1] = assay type: cell-based, Staphylococcus aureus
# [2] = test system: avian influenza virus A/FPV/Bratislava/79 (H7N7); assay type: cell-based; conditions: for IV titers: 2 μM tamiflu vs Hepes, in absence or presence of S. aureus 6850; for virus titers: 18 hrs
# S. aureus 6850 [3] = assay: bacterial internalisation (uptake) into A549 cells after 4 h preincubation; conditions: 2.5 ng/ml TNF-alpha, stimulation 4 hours prior bacterial infection; 120 min
# S. aureus USA300 = assay: as above; conditions: 2.5 ng/ml TNF-alpha, stimulation 4 hours prior bacterial infection; MOI=5; 120 min
# [4] = test system: influenza virus A/Puerto Rico/8/34 (H1N1); assay type: cell-based
# [5] = test system: influenza virus strain A/Puerto Rico/8/34 (PR8, H1N1); assay: mouse co-infection model, viral titers in lung homogenate (plaque assay); assay type: in vivo, Balb/C mice; conditions: lungs day 4
# Experimental: (§1) FIG. 17: Administration of U0126 leads to reduced bacterial titers in vivo independent of viral titers. 12 weeks old Balb/C mice were infected with 50 PFU of the influenza virus strain A/Puerto Rico/8/34 (PR8, H1N1) on day 0 (anesthesized with Isoflurane). Starting on day 1 mice were treated daily with i.p. injection of 30 mg/kg/day U0126 or solvent control (10% DMSO, 30% Cremophor EL, 60% PBS). On day 3 mice were infected with 5*10^7 CFU of Staphylococcus aureus 6850 under anesthesia with Isoflurane and directly treated with U0126 or solvent control. On day 4 lungs were removed and homogenized in PBS (0.1 g per 1000 μl PBS). For calculation of bacterial titers serial dilutions of the homogenate were plated on BHI agar. For determination of viral titers a standard plaque assay was performed. Statistical analysis was done using Mann-Whitney U Test (* p<0.05).
# (§2) 8 weeks old Balb/C mice (5 per group) were infected with 50 PFU of influenza virus strain A/Puerto Rico/8/34 (PR8, H1N1) on day 0 (anesthesized with Isoflurane). 6 hrs post viral infection mice were treated with oral administration of 10 mg/kg/day Cobimetinib or solvent control (10% DMSO, 5% Tween 20, 85% PBS). Treatment was then performed daily. On day 3 mice were infected with 5*10^7 CFU of Staphylococcus aureus 6850 under anesthesia with Isoflurane and 6 hrs later treated with Cobimetinib or solvent control. […]
# ERK-1/2 phosphorylation = conditions: 50 μM U0126; western blot, 8 hrs
# CCL3 = conditions: 50 μM U0126; H3N2 (MOI=5) with or without S. aureus 6850 (MOI=50); 8 hrs; preliminary results
# CCL5 = conditions: 50 μM U0126; H3N2 (MOI=5) with or without S. aureus 6850 (MOI=50); 8 hrs; preliminary results
# [6] = test system: Human lung epithelial cells (A549); assay type: cell-based
# S. aureus 6850 [7] = assay type: cell-based, Staphylococcus aureus; remark: listed apart in the source
# [8] = test system: Staphylococcus aureus 6850; assay: mouse co-infection model, bacterial titers in lung homogenate; assay type: in vivo, Balb/C mice; conditions: S. aureus super-infection day 3, lungs day 4
# Experimental: as §1, §2
# [9] = shown recently; cited from earlier work
# [10] = […], U0126 50 μM, SB202190 10 μM or LG-ASA 5 mM vs solvent control
# [11] = […], U0126 50 μM, SB202190 10 μM or LG-ASA 5 mM vs solvent control, listed as SB02190
molecule,measurement,setting,value
CCOC(=O)C1=C[C@@H](OC(CC)CC)[C@H](NC(C)=O)[C@@H](N)C1 [Oseltamivir],intracellular bacterial amounts (S. aureus load),S. aureus 6850 [1],rather increased; also recorded: enhances
same,IV titers,[2]; MOI=0.001,significantly reduced
same,IV titers,"[2]; MOI=0.001, listed as tamiflu",reduces
TNF-α,bacterial uptake upon NFκB activation,S. aureus 6850 [3],enhanced uptake
same,bacterial uptake upon NFκB activation,S. aureus USA300,enhanced uptake
Oc1ccc(-c2nc(-c3ccncc3)c(-c3ccc(F)cc3)[nH]2)cc1 [SB202190],IV replication (IV titers),[4]; [10],reduces
same,viral titers in presence of S. aureus,[4]; [10],reduces
same,IV replication (IV titers),[4]; [11],inhibitory effects
same,viral titers in presence of S. aureus,[4]; [11],reduced
N#CC(=C(/N)Sc1ccccc1N)/C(C#N)=C(\N)Sc1ccccc1N [U0126],virus titers in vivo (lung),[5]; U0126 30 mg/kg/day i.p. daily from day 1,fail of reduced virus titers
same,IV replication (IV titers),[4],inhibitory effects; also recorded: reduces
same,viral titers in presence of S. aureus,[4],reduces
same,effect on MEK/ERK signalling (ERK1/2 phosphorylation),ERK-1/2 phosphorylation,inhibitory effect
same,bacterial titers of internalized S. aureus 6850,S. aureus 6850 [1],only slightly decreased
same,intracellular amounts of S. aureus (S. aureus load),S. aureus 6850 [1],reduces
same,IAV-induced CCL3 mRNA synthesis,CCL3,reduced
same,virus titers,"[2]; 50 μM U0126 vs solvent, co-infection with S. aureus 6850 (MOI=0.1)",reduced
same,virus titers,"[2]; 50 μM U0126 vs solvent, singular infection, MOI=0.01",significant reduction
same,viral titers in presence of S. aureus,"[2]; co-infection with S. aureus 6850 (MOI=0.5), virus MOI=0.001, 50 μM U0126 vs DMSO",reduces
same,IV replication (IV titers),"[2]; singular infection, MOI=0.001, 50 μM U0126 vs DMSO",inhibitory effects; also recorded: reduces
same,viral protein synthesis (PB1),viral protein (PB1),reduction
same,IAV-induced CCL5 mRNA synthesis,CCL5,further reduced
same,cell damage of cell layer (cell morphology),[6],much less damaged
same,bacterial growth,S. aureus 6850 [7],inhibited; also recorded: reduced
same,bacterial titers without living cells,S. aureus 6850 [7],reduced
same,bacterial titers in vivo (lung),"[8]; U0126 30 mg/kg/day i.p. daily from day 1, 30 mg/kg/day",significantly reduced
"O=C(c1ccc(F)c(F)c1Nc1ccc(I)cc1F)N1CC(O)([C@@H]2CCCCN2)C1 [Cobimetinib, [3,4-difluoro-2-[(2-fluoro-4-iodophenyl)amino]phenyl] [3-hydroxy-3-[(2S)-2-piperidinyl]-1-azetidinyl]methanone]",viral titers in vivo (lung),"[5]; Cobimetinib 10 mg/kg/day oral, daily from 6 hrs post viral infection",slight but clearly detectable reduction; also recorded: reduces
same,maximal tolerated dose,[9],30 mg/kg/day
same,bacterial titers in vivo (lung),"[8]; Cobimetinib 10 mg/kg/day oral, daily",slight but clearly detectable reduction; also recorded: reduces
"O=C(NOCC1CC1)c1ccc(F)c(F)c1Nc1ccc(I)cc1Cl [CI-1040, 2-(2-chloro-4-iodophenylamino)-N-(cyclopropylmethoxy)-3,4-difluorobenzamide]",virus titers,"[2]; 10 μM CI-1040 vs solvent, singular and co-infection with S. aureus 6850 (MOI=0.1), MOI=0.01",reduction; also recorded: reduces
